# Reference: paper PMC6946680, “Modulation of brain cation-Cl^− cotransport via the SPAK kinase inhibitor ZT-1a” (Nature Communications, 2020)
# Several values for one entry are separate records, joined by “and”; a condition that tells them apart may be missing. Equal values may be shown once.
# Assays:
# NKCC1 pThr203/207/212 [1] = experiment: Pharmacodynamic study, NKCC1 phosphorylation in kidney of naive mice; format: in vivo, mouse; conditions: Fig S8b (kidney); 50 mg/kg
# Procedure: (§1) To define ZT-1a efficacy in naive mice in vivo, we examined phosphorylation of SPAK, NKCC1, and NCC in kidney, and phosphorylation of SPAK, NKCC1, and KCC3 in brain, after intraperitoneal (i.p.) administration of either ZT-1a (10, 30, 50, and 100 mg/kg) or Closantel (50 mg/kg as a reference). […]
# (§2) 5. Pharmacodynamic (PD) study
# (§3) Male C57BL/6j wild-type mice (6 weeks old, Charles River Laboratories Edinburgh UK) were treated with ZT-1a (in DMSO, Sigma) by subcutaneous injection at doses of 0, 3, 10, 30, 50 and 100 mg/kg. 50 mg/kg Closantel was administered as a comparative control. Vehicle control mice were treated with an equal volume of DMSO solution. One hour after administration, mice were sacrificed by cervical dislocation, and kidney and brain tissues were rapidly dissected and snap-frozen in liquid nitrogen. Age- […]
# (§4) free conditions at the University of Dundee (UK) as described in our recent study1. Animal experiments and breeding were approved by the University of Dundee ethical committee and performed under a […]
# (§5) Policy on the Care, Welfare and Treatment of Animals, and regulations set by the University of Dundee and the U.K. Home Office. […]
# (§6) Brain and kidney tissues were collected at 60 min post injection, and proteins subjected to immunoblot were probed with antibodies specific for phosphorylated forms of SPAK,
# NKCC1 pThr203/207/212 [2] = experiment: Immunoblot of NKCC1 p-Thr203/Thr207/Thr212 in HEK-293 cells; format: cell-based, human; conditions: single replicates
# SPAK phosphorylation = experiment: Pharmacodynamic study, SPAK phosphorylation in kidney of naive mice; format: in vivo, mouse; conditions: Fig S8b (kidney); 50 mg/kg
# Procedure: as §1, §2, §3, §4, §5, §6
# [3] = target: human SPAK 452-547(C-term) with WNK peptide (RFQV) (Homo sapiens, UniProt Q9UEW8); experiment: Fluorescence polarization of SPAK–WNK peptide interaction; format: binding; conditions: SPAK FL, Fig S5b
# [4] = system: regional cerebral blood flow; experiment: Regional cerebral blood flow by laser speckle contrast imaging after tMCAO; format: in vivo, mouse; conditions: single mice
# Procedure: Regional cerebral blood flow was measured using a two-dimensional laser speckle contrast analysis system (PeriCam PSI High Resolution with PIMSoft, Perimed)[65]. Isoflurane-anesthetized mice were head-fixed using stereotaxic equipment during imaging. The skin was retracted to expose the intact skull. Images were taken at 19 frames/second with averaging. Average signal intensity was taken from fixed-size (0.5-mm^2) regions of interest drawn over the parietal bone plate on the ipsi (IL)- and contralateral (CL) sides. Percent perfusion values were taken in comparison with the mean values of the pre-ischemic ipsilateral side. Five consecutive images at each time period per animal were averaged for analysis. […]
# cerebral blood flow (rCBF) in ischemic mice. a and d Representative two-dimensional laser speckle contrast images of rCBF. Vehicle (DMSO), ZT-1a (A, 2.5 mg/kg), or Closantel (D, 1.25 mg/kg, i.p.) was administered i.p. at 3 hr and again at 8 hr post-reperfusion after MCAO. Pseudocolor scale bar indicates relative signal intensity. b and e No changes of rCBF were detected in the non-ischemic […]
# contralateral (CL) hemispheres of vehicle-control or ZT-1a-treated (b) or Closantel-treated mice (e).
# Data are mean ± SD, n = 3. c and f Similar reductions and recoveries of rCBF in the ischemic ipsilateral hemispheres (IL) were detected in the ZT-1a-treated (c) or Closantel-treated ischemic mice (f), and neither differed from vehicle-injected mice. Data are mean ± SEM, n = 3.
# [5] = system: mouse model of ischemic stroke (tMCAO); experiment: Infarct volume and hemispheric swelling (TTC) 24 h after tMCAO; format: in vivo; conditions: for Infarct volume (mm3): Fig 9b; for Infarct volume (mm3) / Hemisphere swelling (%): individual mice; for Hemisphere swelling (%): Fig 9c
# NCC pThr46/50/55/60 = experiment: Pharmacodynamic study, NCC phosphorylation in kidney of naive mice; format: in vivo, mouse; conditions: Fig S8b (kidney); 50 mg/kg
# Procedure: as §1, §2, §3, §4, §5, §6
# NKCC1 pThr203/207/212 [6] = experiment: Pharmacodynamic study, NKCC1 phosphorylation in brain of naive mice; format: in vivo, mouse
# Procedure: as §1, §2, §3, §4, §5, §6
# KCC3 pThr1048 [7] = experiment: Pharmacodynamic study, KCC3 phosphorylation in brain of naive mice; format: in vivo, mouse
# Procedure: as §1, §2, §3, §4, §5, §6
# KCC3 pThr1048 [8] = experiment: Immunoblot of KCC site 2 phosphorylation (KCC3 Thr1048) in HEK-293 cells transfected with FLAG-KCC3; format: cell-based, human; conditions: single replicates
compound,measurement,setting,value
"Cc1cc(C(C#N)c2ccc(Cl)cc2)c(Cl)cc1NC(=O)c1cc(I)cc(I)c1O (stereo not drawn) [Closantel, reference compound]",pTh203.207.212 / NKCC1,NKCC1 pThr203/207/212 [1],0.43 and 0.52 and 0.41 and 0.37
same,pNKCC1/NKCC1 band intensity ratio,"NKCC1 pThr203/207/212 [2]; Hypotonic low Cl, 1 uM",1.007 and 1.145 and 1.103 and 1.12
same,pNKCC1/NKCC1 band intensity ratio,"NKCC1 pThr203/207/212 [2]; Hypotonic low Cl, 3 uM",0.767 and 0.631 and 0.6563 and 0.721
same,pNKCC1/NKCC1 band intensity ratio,"NKCC1 pThr203/207/212 [2]; Hypotonic low Cl, 10 uM",0.313 and 0.28 and 0.243 and 0.21
same,pNKCC1/NKCC1 band intensity ratio,"NKCC1 pThr203/207/212 [2]; Isotonic control, 1 uM",0.204 and 0.171 and 0.186 and 0.195
same,pNKCC1/NKCC1 band intensity ratio,"NKCC1 pThr203/207/212 [2]; Isotonic control, 3 uM",0.054 and 0.067 and 0.053 and 0.062
same,pNKCC1/NKCC1 band intensity ratio,"NKCC1 pThr203/207/212 [2]; Isotonic control, 10 uM",0.03 and 0.047 and 0.044 and 0.038
same,pSer373 / SPAK,SPAK phosphorylation,0.54 and 0.38 and 0.32 and 0.46
same,Inhibitor vs SPAK FL (fluorescence polarization signal),[3]; Inhibitor 1e-5 μM,127.9 and 118 and 130
same,Inhibitor vs SPAK FL (fluorescence polarization signal),[3]; Inhibitor 0.0001 μM,125.3 and 112 and 127
same,Inhibitor vs SPAK FL (fluorescence polarization signal),[3]; Inhibitor 0.001 μM,121.9 and 115.3 and 123
same,Inhibitor vs SPAK FL (fluorescence polarization signal),[3]; Inhibitor 0.003 μM,123.1 and 116.4 and 120.4
same,Inhibitor vs SPAK FL (fluorescence polarization signal),[3]; Inhibitor 0.01 μM,124.7 and 111.9 and 117.8
same,Inhibitor vs SPAK FL (fluorescence polarization signal),[3]; Inhibitor 0.03 μM,123.5 and 114.7 and 122.6
same,Inhibitor vs SPAK FL (fluorescence polarization signal),[3]; Inhibitor 0.1 μM,126.5 and 109.5 and 116.8
same,Inhibitor vs SPAK FL (fluorescence polarization signal),[3]; Inhibitor 0.3 μM,114.7 and 105.4 and 109.5
same,Inhibitor vs SPAK FL (fluorescence polarization signal),[3]; Inhibitor 1 μM,106.2 and 99.8 and 105.3
same,Inhibitor vs SPAK FL (fluorescence polarization signal),[3]; Inhibitor 3 μM,104.5 and 98.4 and 100.5
same,Inhibitor vs SPAK FL (fluorescence polarization signal),[3]; Inhibitor 10 μM,103.1 and 97.1 and 101.4
same,Inhibitor vs SPAK FL (fluorescence polarization signal),[3]; Inhibitor 100 μM,104.1 and 98.1 and 100.6
same,% CBF,"[4]; Fig S10b/S10e, Pre",100%
same,% CBF,"[4]; Fig S10b/S10e, Reperfusion 10 min",84% and 95% and 110%
same,% CBF,"[4]; Fig S10b/S10e, Reperfusion 20 min",94% and 89% and 92%
same,% CBF,"[4]; Fig S10b/S10e, Reperfusion 3 h",108% and 97% and 120%
same,% CBF,"[4]; Fig S10b/S10e, Reperfusion 4 h",105% and 104% and 110%
same,% CBF,"[4]; Fig S10b/S10e, Reperfusion 24 h",119% and 83% and 102%
same,% CBF,"[4]; Fig S10b/S10e, mcao 10 min",113% and 80% and 120%
same,% CBF,"[4]; Fig S10b/S10e, mcao 20min",111% and 75% and 88%
same,% CBF,"[4]; Fig S10b/S10e, mcao 50 min",111% and 76% and 90%
same,% CBF,"[4]; Fig S10c/S10f, Pre",100%
same,% CBF,"[4]; Fig S10c/S10f, Reperfusion 10 min",68% and 56%
same,% CBF,"[4]; Fig S10c/S10f, Reperfusion 20 min",65% and 75% and 58%
same,% CBF,"[4]; Fig S10c/S10f, Reperfusion 3 h",88% and 84% and 92%
same,% CBF,"[4]; Fig S10c/S10f, Reperfusion 4 h",101% and 92% and 90%
same,% CBF,"[4]; Fig S10c/S10f, Reperfusion 24 h",120% and 101% and 104%
same,% CBF,"[4]; Fig S10c/S10f, mcao 10 min",34% and 30% and 35%
same,% CBF,"[4]; Fig S10c/S10f, mcao 20min",37% and 32% and 33%
same,% CBF,"[4]; Fig S10c/S10f, mcao 50 min",34% and 33%
same,infarct volume and hemispheric swelling,[5]; Closantel 0.1 mg/kg,ineffective
same,infarct volume and hemispheric swelling,[5]; Closantel 1.0 or 2.5 mg/kg at 3 and 8 h post reperfusion,reduced infarct volume and hemispheric swelling in a dose-dependent manner
same,Infarct volume (mm3),[5]; group Closantel 0.1,52.64 mm3 and 37.67 mm3 and 66.15 mm3 and 91.58 mm3 and 31.83 mm3 and 54.68 mm3 and 37.74 mm3 and 60.16 mm3
same,Infarct volume (mm3),[5]; group Closantel 1.0,45.07 mm3 and 60.3 mm3 and 40.86 mm3 and 27.89 mm3 and 44.96 mm3 and 50.26 mm3 and 35.08 mm3 and 36.9 mm3
same,Infarct volume (mm3),[5]; group Closantel 2.5,19.91 mm3 and 50.06 mm3 and 19.99 mm3 and 41.45 mm3 and 32.49 mm3
same,Hemisphere swelling (%),[5]; group Closantel 0.1,17.46% and 13.77% and 21.57% and 18.71% and 11.16% and 11.73% and 9.03% and 12%
same,Hemisphere swelling (%),[5]; group Closantel 1.0,14.03% and 8.76% and 11.37% and 10.48% and 8.67% and 13.59% and 10.61% and 15.28%
same,Hemisphere swelling (%),[5]; group Closantel 2.5,3.84% and 16.57% and 8.91% and 6.76% and 4.41%
same,pTh46.50.55 / NCC,NCC pThr46/50/55/60,0.81 and 1.06 and 0.69 and 0.76
same,NKCC1 phosphorylation (pThr203/207/212) in naive brains,NKCC1 pThr203/207/212 [6]; 60 min after administration,neither drug had reduced
same,pTh203.207.212 / NKCC1,"NKCC1 pThr203/207/212 [6]; Fig S8a (brain), 50 mg/kg",0.63 and 0.62 and 0.71 and 0.68
same,KCC3 phosphorylation (pThr1048) in naive brains,KCC3 pThr1048 [7]; 60 min after administration,neither drug had reduced
same,pTh1048 / KCC3,"KCC3 pThr1048 [7]; Fig S8a (brain), 50 mg/kg",0.84 and 0.87 and 0.95 and 0.91
same,T1007/KCC2 band intensity ratio,"KCC3 pThr1048 [8]; Hypotonic low Cl, 1 uM",0.34 and 0.36 and 0.343 and 0.37
same,T1007/KCC2 band intensity ratio,"KCC3 pThr1048 [8]; Hypotonic low Cl, 3 uM",0.16 and 0.144 and 0.163 and 0.152
same,T1007/KCC2 band intensity ratio,"KCC3 pThr1048 [8]; Hypotonic low Cl, 10 uM",0.113 and 0.046 and 0.08 and 0.1
same,T1007/KCC2 band intensity ratio,"KCC3 pThr1048 [8]; Isotonic control, 1 uM",0.358 (2×) and 0.326 and 0.311
same,T1007/KCC2 band intensity ratio,"KCC3 pThr1048 [8]; Isotonic control, 3 uM",0.141 and 0.106 and 0.123 and 0.134
same,T1007/KCC2 band intensity ratio,"KCC3 pThr1048 [8]; Isotonic control, 10 uM",0.071 and 0.062 and 0.054 and 0.067
